Experimental data as given in ChEMBL document CHEMBL4715709, “Synthesis and evaluation of anticonvulsant properties of new N-Mannich bases derived from 3-(1-phenylethyl)- and 3-benzyl-pyrrolidine-2,5-dione” (Bioorg Med Chem Lett, 2016).
Active and inactive are the calls of the source. No cut-off for these calls is given here.

What was measured:
Mus musculus [1] = assay: Anticonvulsant activity in mouse assessed as protection against tonic-clonic seizures at 300 mg/kg, ip measured after 0.5 hrs by maximal electroshock seizure test; assay type: functional, organism-based
Mus musculus [2] = assay: Anticonvulsant activity in mouse assessed as protection against tonic-clonic seizures at 300 mg/kg, ip measured after 4 hrs by maximal electroshock seizure test; assay type: functional, organism-based
Mus musculus [3] = assay: Anticonvulsant activity in mouse assessed as protection against ScPTZ-induced epilepsy at 300 mg/kg, ip measured after 0.5 hrs by subcutaneous pentylenetetrazole test; assay type: functional, organism-based
Mus musculus [4] = assay: Anticonvulsant activity in mouse assessed as protection against ScPTZ-induced epilepsy at 300 mg/kg, ip measured after 4 hrs by subcutaneous pentylenetetrazole test; assay type: functional, organism-based
[5] = Neurotoxicity in mouse assessed as induction of motor impairment at 300 mg/kg, ip measured after 0.5 hrs by rotarod test; assay type: toxicity, organism-based; conditions: in vivo
[6] = Neurotoxicity in mouse assessed as induction of motor impairment at 300 mg/kg, ip measured after 4 hrs by rotarod test; assay type: toxicity, organism-based; conditions: in vivo

Row | SMILES | Activity (Mus musculus [1]) | Activity (Mus musculus [2]) | Activity (Mus musculus [3]) | Activity (Mus musculus [4]) | Activity [5] | Activity [6]
1 | COc1cccc(N2CCN(CN3C(=O)CC(C(C)c4ccccc4)C3=O)CC2)c1 (centres undefined) | inactive | inactive | inactive | inactive | Non-Toxic | Non-Toxic
2 | CC(c1ccccc1)C1CC(=O)N(CN2CCN(c3cccc(Cl)c3Cl)CC2)C1=O (centres undefined) | inactive | inactive | inactive | inactive | Non-Toxic | Non-Toxic
3 | CC(c1ccccc1)C1CC(=O)N(CN2CCN(c3ccc(Cl)c(Cl)c3)CC2)C1=O (centres undefined) | inactive | inactive | inactive | inactive | Non-Toxic | Non-Toxic
4 | O=C1CC(Cc2ccccc2)C(=O)N1CN1CCC(Cc2ccccc2)CC1 (centres undefined) | inactive | inactive | inactive | inactive | Non-Toxic | Non-Toxic
5 | CC(c1ccccc1)C1CC(=O)N(CN2CCN(c3ccccc3)CC2)C1=O (centres undefined) | inactive | inactive | inactive | inactive | Non-Toxic | Non-Toxic
6 | CC(c1ccccc1)C1CC(=O)N(CN2CCN(c3ccccc3Cl)CC2)C1=O (centres undefined) | inactive | inactive | inactive | inactive | Non-Toxic | Non-Toxic
7 | O=C1CC(Cc2ccccc2)C(=O)N1CN1CCN(C2CCCCC2)CC1 (centres undefined) | inactive | inactive | inactive | inactive | Non-Toxic | Non-Toxic
8 | CC(c1ccccc1)C1CC(=O)N(CN2CCN(c3ccccc3F)CC2)C1=O (centres undefined) | inactive | inactive | inactive | inactive | Non-Toxic | Non-Toxic
9 | COc1cccc(N2CCN(CN3C(=O)CC(Cc4ccccc4)C3=O)CC2)c1 (centres undefined) | inactive | inactive | inactive | inactive | Non-Toxic | Non-Toxic
10 | CC(c1ccccc1)C1CC(=O)N(CN2CCN(c3ccc(F)cc3)CC2)C1=O (centres undefined) | inactive | inactive | inactive | inactive | Non-Toxic | Non-Toxic
11 | CC(c1ccccc1)C1CC(=O)N(CN2CCN(Cc3ccccc3)CC2)C1=O (centres undefined) | inactive | inactive | inactive | inactive | Non-Toxic | Non-Toxic
12 | O=C1CC(Cc2ccccc2)C(=O)N1CN1CCN(c2cccc(Cl)c2Cl)CC1 (centres undefined) | inactive | inactive | inactive | inactive | Non-Toxic | Non-Toxic
13 | Cc1ccccc1N1CCN(CN2C(=O)CC(C(C)c3ccccc3)C2=O)CC1 (centres undefined) | inactive | inactive | inactive | inactive | Non-Toxic | Non-Toxic
14 | Cc1ccccc1N1CCN(CN2C(=O)CC(Cc3ccccc3)C2=O)CC1 (racemic) | inactive | inactive | inactive | inactive | Non-Toxic | Non-Toxic
